Target: T1, human recombinant Yes [a.a. 2–543 (end)] (Homo sapiens, UniProt P07947)
T1 construct: human recombinant Yes [a.a; 2–543 (end)]; purchased BPS Bioscience 40488
Experiment: ADP-Glo kinase assay, inhibition rates of Yes phosphorylation activity (first and second screening)
Format: biochemical
Details: 10 μmol L−1 compound; for First screening IR (inhibition rate): mean of n = 4 wells
In short: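 Hits from a first pass were rescreened after re-dissolution from fresh powder. The first pass reported the mean inhibition rate of quadruplicate wells per compound. Activity was that of recombinant human Yes [a.a. 2–543] kinase, read out with the ADP-Glo ADP-detection method.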

T1 sequence (P07947 2-543): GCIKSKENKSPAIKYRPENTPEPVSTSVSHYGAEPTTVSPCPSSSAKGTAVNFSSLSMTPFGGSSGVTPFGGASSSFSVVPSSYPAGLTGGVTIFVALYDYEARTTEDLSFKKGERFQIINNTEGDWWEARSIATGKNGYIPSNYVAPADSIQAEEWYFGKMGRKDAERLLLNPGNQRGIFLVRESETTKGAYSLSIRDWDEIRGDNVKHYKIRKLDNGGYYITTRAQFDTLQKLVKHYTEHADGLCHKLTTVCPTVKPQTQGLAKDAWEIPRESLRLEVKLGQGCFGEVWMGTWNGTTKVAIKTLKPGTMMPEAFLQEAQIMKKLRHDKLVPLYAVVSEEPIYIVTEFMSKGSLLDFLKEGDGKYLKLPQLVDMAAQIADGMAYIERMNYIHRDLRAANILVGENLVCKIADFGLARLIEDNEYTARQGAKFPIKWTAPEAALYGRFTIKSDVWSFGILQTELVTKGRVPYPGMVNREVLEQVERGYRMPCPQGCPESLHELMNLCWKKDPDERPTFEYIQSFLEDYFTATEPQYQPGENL

SMILES | First screening IR (inhibition rate) [%] | Second screening IR (inhibition rate) (second screening, dissolved from fresh powder, n = 4) [%]
NC(=O)C(Nc1cnn(Cc2ccccc2)c1)c1ccc(F)cc1 (stereo not shown) [Compound Z1686719326] | 0 | –
O=C(CCCSc1ccccc1)Nc1n[nH]c(-c2ccc(F)cc2)n1 [Compound Z108549090] | 6 | –
O=C(Nc1nc2ccccc2[nH]1)c1ccc(N2CCCC2=O)cc1 [Compound Z27664887] | 8 | –
CC(C)c1cccc(NC(=O)CN(C)CC(=O)N2c3ccccc3NC(=O)CC2C)c1 (stereo not shown) [Compound Z203963094] | -10 | –
COc1ccc(Nc2ncnc(N)n2)cc1 [Compound Z56938001] | 14 | –
O=C(O)/C=C/c1cccc(NS(=O)(=O)/C=C/c2ccccc2)c1 [Compound Z56757962] | 1 | –
CC(NC(=O)CCc1nc2ccccc2c(=O)[nH]1)c1cccc(C(F)(F)F)c1 (stereo not shown) [Compound Z28541828] | -5 | –
COC(=O)c1cc(CSc2n[nH]c(-c3ccccc3)n2)oc1C [Compound Z25398505] | 1 | –
Cc1cc(NCc2nnc(C)n2C)c(C(N)=O)cc1F [Compound Z1618388683] | -35 | –
O=C(Nc1cccnc1)C1CCN(C(=O)c2ccc(C(F)(F)F)cc2)CC1 [Compound Z228734424] | -1 | –
Cc1c(C(=O)Nc2ccc3c(ccn3CCN3CCOCC3)c2)nnn1-c1ccc(F)cc1 [Compound Z961847812] | -11 | –
CC(c1ccccc1)N1C(=O)C(=O)N(CC(=O)c2cccn2C)C1=O (stereo not shown) [Compound Z290228874] | -8 | –
Cl.Nc1ccc(-c2cc(-c3ccccc3)c3cc(Cl)ccc3n2)cc1 [Compound Z56913268] | -5 | –
COc1ccc(Nc2nc(N3CCCCC3)nc(N)c2[N+](=O)[O-])cc1 [Compound Z245295930] | 8 | –
CC(C)c1noc(C(C)S(=O)(=O)C/C=C/c2ccccc2)n1 (stereo not shown) [Compound Z436400008] | 6 | –
COc1ccc(OC)c(-n2c(-c3ccc(C)cc3)nn(CN3CCN(c4ccc(O)cc4)CC3)c2=S)c1 [Compound Z44104256] | 10 | –

SMILES | First screening IR (inhibition rate) [%] | Second screening IR (inhibition rate) (second screening, dissolved from fresh powder, n = 4) [%]
O=C(OCC(=O)N1N=C(c2ccc(Cl)cc2)CC1c1ccco1)c1cc(-c2ccco2)nc2ccccc12 (stereo not shown) [Compound Z18799147] | 0 | –
Cc1nn(C2CCS(=O)(=O)C2)c2nc(C3CC3)cc(C(=O)Nc3ccc(C(N)=O)cc3)c12 (stereo not shown) [Compound Z60779201] | 17 | –
Cc1[nH]n(-c2ccccc2)c(=O)c1/C(=N/NC(=O)c1cc(-c2ccccc2)n[nH]1)c1ccccc1 [Compound Z56919929] | 1 | –
Cc1c(NC(=O)C2CC(=O)N(c3ccc4c(c3)CCC4)C2)n[nH]c1C1CC1 (stereo not shown) [Compound Z954497746] | -9 | –
Nc1nc(N)nc(CSCc2ccc(-c3ccccc3)cc2)n1 [Compound Z99552008] | -6 | –
CC(C)CN1CCOC(CNC(=O)c2cc3cc(F)ccc3[nH]2)C1 (stereo not shown) [Compound Z300664804] | -5 | –
CCc1ccc(CNc2cccc(NC(=O)OCCOC)c2)o1 [Compound Z1420504830] | -7 | –
O=C(NCCCn1ccnc1)C1CCN(C(=O)c2ccc(F)cc2)CC1 [Compound Z30216742] | 41 | –
CCS(=O)(=O)Cc1cccc(S(=O)(=O)N(C)C)c1 [Compound Z416890194] | -10 | –
O=C(OCc1noc(C2CC2)n1)c1c[nH]cc1-c1ccc(Cl)s1 [Compound Z847574324] | 10 | –
CCn1c(C)cc(C(=O)N2CCc3[nH]c4ccccc4c3C2)c1C [Compound Z231937310] | 6 | –
c1ccc(-n2ncc3c(SCCc4ccncc4)ncnc32)cc1 [Compound Z103069550] | 11 | –
CN(C)c1nc2ccc(NC(=O)c3csc(-c4ccoc4)n3)cc2o1 [Compound Z1404550995] | 10 | –
CCC(C)(C)C1C/C(=C/c2ccc(Sc3nncn3C)c([N+](=O)[O-])c2)c2nc3ccccc3c(C(=O)O)c2C1 (stereo not shown) [Compound Z46116775] | 11 | –
Cc1ccccc1Nc1nc(N)nc(CSc2ccc(C(F)(F)F)cn2)n1 [Compound Z45354574] | 12 | –

Next, values leading:

First screening IR (inhibition rate) [%] | Second screening IR (inhibition rate) (second screening, dissolved from fresh powder, n = 4) [%] | SMILES
-3 | – | CC(C)CCn1c(CN2CCN(Cc3ccco3)CC2)nc2c1c(=O)[nH]c(=O)n2Cc1ccccc1 [Compound Z195914778]
6 | – | Cc1cn2c3c(=O)n(CC(C)C)c(=O)n(C)c3nc2n1-c1ccc(N(C)C)cc1 [Compound Z281877508]
1 | – | CC(C)c1ccc(Sc2ccc(N3CCC(C(=O)O)CC3)nn2)cc1 [Compound Z1863492097]
-4 | – | Clc1ccccc1Cn1ncc2c(N3CCOCC3)ncnc21 [Compound Z1172235408]
-24 | – | Cc1ccc(-c2nn3c(=O)c4c5c(sc4nc3c3ccccc23)CC(C(C)(C)C)CC5)cc1 (stereo not shown) [Compound Z56929220]
9 | – | COCCNC(=O)CN1CCN(c2nc(-c3cccnc3)nc3scc(-c4ccccc4)c23)CC1 [Compound Z128012326]
7 | – | COC1CN(C(=O)c2cn(-c3ccccc3)nc2-c2cccnc2)C1 [Compound Z1203241726]
13 | – | O=C(NCc1ccc(COCC(F)(F)F)cc1)c1ccc2nc[nH]c2c1 [Compound Z226277016]
0 | – | Cc1cnn(-c2cccc(N3CCOC(c4ccc(F)cc4)C3)n2)c1 (stereo not shown) [Compound Z1430532131]
5 | – | CC(C)(C)OC(=O)N1CCN(C(=O)c2cc(-c3ccccc3)nc3c2cnn3Cc2ccncc2)CC1 [Compound Z238073806]
31 | – | CCn1ncc2c(C(=O)Nc3ccc(F)c([N+](=O)[O-])c3)cc(-c3cccs3)nc21 [Compound Z225316878]
0 | – | O=C(OCCOc1ccccc1Cl)c1cn2ccccc2n1 [Compound Z16593263]
73 | -3 | CS(=O)(=O)c1ccc(S(=O)(=O)Cl)cc1 [Compound Z248485700]
38 | – | CCN1CCN(c2nc3ccccc3nc2C(C#N)C(=O)NCCc2ccc(OC)c(OC)c2)CC1 (stereo not shown) [Compound Z56854281]
2 | – | CS(=O)(=O)N(C(=O)c1ccc(OC(F)(F)F)cc1)C1CCC(O)CC1 (stereo not shown) [Compound Z1328888966]
-9 | – | O=C(O)c1cccc(/C=C/c2ccnnc2)c1 [Compound Z1728621359]
8 | – | O=C(Nc1ccc(N2CCOCC2)nc1)c1cc(-c2ccc(Cl)cc2)n[nH]1 [Compound Z229828974]
-8 | – | Cc1ccc(-c2csc3ncn(CC(=O)N4CCN(CC(=O)NC(C)(C)C)CC4)c(=O)c23)cc1C [Compound Z81619452]
12 | – | CC(Sc1n[nH]c(/C=C/c2ccccc2)n1)c1nc(C(C)(C)C)no1 (stereo not shown) [Compound Z298272042]

First screening IR (inhibition rate) [%] | Second screening IR (inhibition rate) (second screening, dissolved from fresh powder, n = 4) [%] | SMILES
55 | – | CC1CC(C)CN(S(=O)(=O)c2ccccc2S(C)(=O)=O)C1 (stereo not shown) [Compound Z285665176]
12 | – | Cc1ccc(-c2cc(C(=O)OCc3nc(C(C)(C)C)no3)n[nH]2)s1 [Compound Z355654248]
9 | – | O=S(=O)(Cl)c1ccc(S(=O)(=O)N2CCCC2)cc1 [Compound Z56979291]
2 | – | NC(=O)c1cnc(NCc2ccnc(N3CCCCC3)c2)c(Cl)c1 [Compound Z729056808]
25 | – | CCOC(=O)/C=c1\s/c(=C/c2ccc(N3CCCCC3)c([N+](=O)[O-])c2)c(=O)n1CC(=O)N1CCC(C)CC1 [Compound Z48712692]
-4 | – | CS(=O)(=O)CS(=O)(=O)C(F)(F)F [Compound Z540725378]
14 | – | Cc1ccccc1-n1c(SCC(=O)c2cc(C)n(CC3CCCO3)c2C)nnc1N1CCOCC1 (stereo not shown) [Compound Z92475228]
-15 | – | COc1ccc(CCN2CC(C(=O)Nc3c(-c4ccccc4)nc4ccc(C)cn34)CC2=O)cc1OC (stereo not shown) [Compound Z70997275]
-22 | – | O=C(NCc1ccnc(Oc2ccccc2)c1)c1ccc(OCc2cccnc2)cc1 [Compound Z424307182]
0 | – | Cc1nn(CC(C)C)c2sc(C(=O)Nc3nc(-c4ccccn4)cs3)cc12 [Compound Z29467100]
17 | – | Cc1nccn1-c1cncc(NCCOCCS(C)(=O)=O)n1 [Compound Z1513517715]
3 | – | COc1ccccc1-c1cc(-c2ccccc2)c2ccccc2n1.Cl [Compound Z48951051]
1 | – | Cc1cc(N=C2C(=O)Nc3c(Cl)cc(Cl)cc32)ccc1Br [Compound Z56849070]
-10 | – | Clc1ccc(/C=C2/CCCc3c2nc2ncnn2c3-c2ccc(Cl)cc2)cc1 [Compound Z56784275]
8 | – | O=C(COc1ccc(Br)cc1)Nc1cccc(Cn2ccnc2)c1 [Compound Z362662788]
1 | – | CCN(CC)S(=O)(=O)c1ccc(N2CCc3c(sc(N)c3C#N)C2)c([N+](=O)[O-])c1 [Compound Z166707558]
6 | – | Cn1cncc1CC(=O)Nc1ccc2nc(-c3cc(F)ccc3F)[nH]c2c1 [Compound Z1737110153]
8 | – | O=C(COc1ccc2ccccc2c1)Nc1nc2ccccc2[nH]1 [Compound Z27666510]
-8 | – | CN(C)c1nc(N)nc(CSCCOc2ccc(F)cc2)n1 [Compound Z197453372]

Source: paper PMC5607274, “An iterative compound screening contest method for identifying target protein inhibitors using the tyrosine-protein kinase Yes” (Scientific Reports, 2017)
